# Test results: US8871756B2 (Hoffmann-La Roche Inc., priority 2011, dated 2014)
# Where a name gives a salt, the structure may show the parent alone.
# System: RSV Long strain
# Assay: Viral cytopathic effect (CPE) assay, anti-RSV activity
# Format: cell-based, Respiratory Syncytial Virus
# Conditions: human respiratory syncytial virus, 144 h, RSV Long strain (ATCC); cell viability after 6 days, Cell Counting kit-8
# Procedure, shortened: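 Cells (6×10^3/well, DMEM with 10% FBS) were infected next day with RSV Long strain, at a dose giving approximately 80–90% CPE, alongside serial half-log compound dilutions. Viability was read after 6 days by CCK-8 absorbance at 450 nm (reference 630 nm), and EC50 was derived from it.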
row,SMILES,EC50 [µM]
1,"Cc1ccc2nc(N3CCC(F)(F)c4ccccc4C3)nc(NCC3(CN)CSC3)c2c1 [Example 114-2, N-{[3-(Aminomethyl)thietan-3-yl]methyl}-2-(5,5-difluoro-1,3,4,5-tetrahydro-2H-2-benzazepin-2-yl)-6-methylquinazolin-4-amine]",0.975
2,"Cc1ccc2nc(N3CCC(F)(F)c4ccccc4C3)nc(NCC3(CN)COC3)c2c1 [Example 114-3, N-{[3-(Aminomethyl)oxetan-3-yl]methyl}-2-(5,5-difluoro-1,3,4,5-tetrahydro-2H-2-benzazepin-2-yl)-6-methylquinazolin-4-amine]",0.004
3,"Cc1ccc2nc(N3CCC(F)(F)c4ccccc4C3)nc(NCC(CN)(CO)CO)c2c1 [Example 114-4, 2-(Aminomethyl)-2-({[2-(5,5-difluoro-1,3,4,5-tetrahydro-2H-2-benzazepin-2-yl)-6-methylquinazolin-4-yl]amino}methyl)propane-1,3-diol]",0.186
4,"Cc1ccc2nc(N3CCC(C)(O)c4ccccc4C3)nc(NCC3(N)COC3)c2c1 (centres unmarked) [Example 115, 2-(4-{[(3-Aminooxetan-3-yl)methyl]amino}-6-methylquinazolin-2-yl)-5-methyl-2,3,4,5-tetrahydro-1H-2-benzazepin-5-ol]",0.01
5,"Cc1ccc2nc(N3CCC(F)(F)c4ccccc4C3)nc(NCC3(N)COC3)c2c1 [Example 116-1, N-[(3-Aminooxetan-3-yl)methyl]-2-(5,5-difluoro-1,3,4,5-tetrahydro-2H-2-benzazepin-2-yl)-6-methylquinazolin-4-amine]",0.005
6,"Cc1ccc2nc(N3CCC(F)(F)c4ccccc4C3)nc(NCC3(N)CS(=O)(=O)C3)c2c1 [Example 116-2, N-[(3-Amino-1,1-dioxidothietan-3-yl)methyl]-2-(5,5-difluoro-1,3,4,5-tetrahydro-2H-2-benzazepin-2-yl)-6-methylquinazolin-4-amine]",0.309
7,"NCCNc1cc(N2CCCc3ccc(O)cc3C2)nc2ccccc12 [Example 118-2, 2-{4-[(2-Aminoethyl)amino]quinolin-2-yl}-2,3,4,5-tetrahydro-1H-2-benzazepin-8-ol]",0.048
8,"Cc1ccc2nc(N3CCCc4ccccc4C3)cc(NCCN)c2c1 [Example 118-3, N-[6-Methyl-2-(1,3,4,5-tetrahydro-2H-2-benzazepin-2-yl)quinolin-4-yl]ethane-1,2 diamine]",0.063
9,"Cc1ccc2nc(N3CCCc4ccc(F)cc4C3)cc(NCCN)c2c1 [Example 118-4, N-[2-(8-Fluoro-1,3,4,5-tetrahydro-2H-2-benzazepin-2-yl)-6-methylquinolin-4-yl]ethane-1,2-diamine]",0.104
10,"NCCNc1cc(N2CCCc3cccc(F)c3C2)nc2ccc(Cl)cc12 [Example 118-6, N-[6-Chloro-2-(9-fluoro-1,3,4,5-tetrahydro-2H-2-benzazepin-2-yl)quinolin-4-yl]ethane-1,2-diamine]",0.173
11,"NCCNc1cc(N2CCCc3ccc(F)cc3C2)nc2ccccc12 [Example 118-7, N-[2-(8-Fluoro-1,3,4,5-tetrahydro-2H-2-benzazepin-2-yl)quinolin-4-yl]ethane-1,2-diamine]",0.166
12,"NCC(O)CNc1cc(N2CCCc3ccccc3C2)nc2ccccc12 (centres unmarked) [Example 118-8, 1-Amino-3-{[2-(1,3,4,5-tetrahydro-2H-2-benzazepin-2-yl)quinolin-4-yl]amino}propan-2-ol trifluoroacetate (salt)]",0.223
13,"NCCNc1cc(N2CCCc3ccccc3C2)nc2ccccc12 [Example 118-9, N-[2-(1,3,4,5-Tetrahydro-2H-2-benzazepin-2-yl)quinolin-4-yl]ethane-1,2-diamine]",0.202
14,"COc1ccc2nc(N3CCCc4ccccc4C3)cc(NCCN)c2c1 [Example 118-11, N-[6-Methoxy-2-(1,3,4,5-tetrahydro-2H-2-benzazepin-2-yl)quinolin-4-yl]ethane-1,2-diamine]",0.323
15,"NCCNc1cc(N2CCCc3c(Cl)cccc3C2)nc2ccccc12 [Example 118-12, N-[2-(6-Chloro-1,3,4,5-tetrahydro-2H-2-benzazepin-2-yl)quinolin-4-yl]ethane-1,2-diamine]",0.448
16,"COc1ccc2c(c1)CCCN(c1cc(NCCN)c3ccccc3n1)C2 [Example 118-15, N-[2-(7-Methoxy-1,3,4,5-tetrahydro-2H-2-benzazepin-2-yl)quinolin-4-yl]ethane-1,2-diamine]",0.626
17,"COc1ccc2c(c1)CN(c1cc(NCCN)c3ccccc3n1)CCC2 [Example 118-17, N-[2-(8-Methoxy-1,3,4,5-tetrahydro-2H-2-benzazepin-2-yl)quinolin-4-yl]ethane-1,2-diamine]",0.806
18,"NCCNc1cc(N2CCCc3ccccc3C2)nc2ccc(OC(F)F)cc12 [Example 118-18, N-[6-(Difluoromethoxy)-2-(1,3,4,5-tetrahydro-2H-2-benzazepin-2-yl)quinolin-4-yl]ethane-1,2-diamine]",0.973
19,"NCCNc1cc(N2CCCc3ccccc3C2)nc2c(Cl)cccc12 [Example 118-20, N-[8-Chloro-2-(1,3,4,5-tetrahydro-2H-2-benzazepin-2-yl)quinolin-4-yl]ethane-1,2-diamine]",1.13
20,"NCCNc1cc(N2CCCc3ccccc3C2)nc2ccc(F)cc12 [Example 118-21, N-[6-Fluoro-2-(1,3,4,5-tetrahydro-2H-2-benzazepin-2-yl)quinolin-4-yl]ethane-1,2-diamine]",1.38
21,"CS(=O)(=O)c1ccc2nc(N3CCCc4ccccc4C3)cc(NCCN)c2c1 [Example 118-24, N-[6-(Methylsulfonyl)-2-(1,3,4,5-tetrahydro-2H-2-benzazepin-2-yl)quinolin-4-yl]ethane-1,2-diamine]",6.45
22,"Clc1cc(N2CCCc3ccccc3C2)nc2ccccc12 [Example 118-26, 2-(4-Chloroquinolin-2-yl)-2,3,4,5-tetrahydro-1H-2-benzazepine]",7.75
23,"NCCNc1cc(N2CCCc3ccccc3C2)nc2cccc(Cl)c12 [Example 119, N-[5-Chloro-2-(1,3,4,5-tetrahydro-2H-2-benzazepin-2-yl)quinolin-4-yl]ethane-1,2-diamine]",6.66
24,"CCS(=O)(=O)c1ccc2c(c1)CCCN(c1cc(NCCN)c3ccccc3n1)C2 [Example 120-2, N-{2-[7-(Ethylsulfonyl)-1,3,4,5-tetrahydro-2H-2-benzazepin-2-yl]quinolin-4-yl}ethane-1,2-diamine]",1.79

# Further compounds by falling EC50, results first:
row,EC50 [µM],SMILES
1,7.62,"NCCNc1cc(N2CCCc3ccc(C(=O)O)cc3C2)nc2ccccc12 [Example 118-25, 2-{4-[(2-Aminoethyl)amino]quinolin-2-yl}-2,3,4,5-tetrahydro-1H-2-benzazepine-8-carboxylic acid]"
2,5.97,"Cc1ccc2nc(N3CCC(F)(F)c4ccccc4C3)nc(NCC(F)(F)CN)c2c1 [Example 117, N-[2-(5,5-Difluoro-1,3,4,5-tetrahydro-2H-2-benzazepin-2-yl)-6-methylquinazolin-4-yl]-2,2-difluoropropane-1,3-diamine]"
3,3.12,"NCCNc1cc(N2CCCc3ccccc3C2)nc2ccc(Oc3ccccn3)cc12 [Example 122, N-[6-(Pyridin-2-yloxy)-2-(1,3,4,5-tetrahydro-2H-2-benzazepin-2-yl)quinolin-4-yl]ethane-1,2-diamine]"
4,2.64,"NCCNc1cc(N2CCCc3ccccc3C2)nc2ccc(OC(F)(F)F)cc12 [Example 118-23, N-[2-(1,3,4,5-Tetrahydro-2H-2-benzazepin-2-yl)-6-(trifluoromethoxy)quinolin-4-yl]ethane-1,2-diamine]"
5,2.23,"CN(C)CCNc1cc(N2CCCc3ccccc3C2)nc2ccccc12 [Example 118-22, N,N-Dimethyl-N′-[2-(1,3,4,5-tetrahydro-2H-2-benzazepin-2-yl)quinolin-4-yl]ethane-1,2-diamine]"
6,2.19,"CS(=O)(=O)c1ccc2c(c1)CCCN(c1cc(NCCN)c3ccccc3n1)C2 [Example 120-1, N-{2-[7-(Methylsulfonyl)-1,3,4,5-tetrahydro-2H-2-benzazepin-2-yl]quinolin-4-yl}ethane-1,2-diamine]"
7,1.98,"NCCNc1cc(N2CCCc3cc(Br)ccc3C2)nc2ccc(Cl)cc12 [Example 118-1, N-[2-(7-Bromo-1,3,4,5-tetrahydro-2H-2-benzazepin-2-yl)-6-chloroquinolin-4-yl]ethane-1,2-diamine]"
8,1.24,"NCCNc1cc(N2CCCc3ccccc3C2)nc2ccc(C(F)(F)F)cc12 [Example 118-19, N-[2-(1,3,4,5-Tetrahydro-2H-2-benzazepin-2-yl)-6-(trifluoromethyl)quinolin-4-yl]ethane-1,2-diamine]"
9,1.1,"CCOc1ccc2c(c1)CN(c1cc(NCCN)c3ccccc3n1)CCC2 [Example 121, N-[2-(8-Ethoxy-1,3,4,5-tetrahydro-2H-2-benzazepin-2-yl)quinolin-4-yl]ethane-1,2-diamine]"
10,0.695,"NCCNc1cc(N2CCCc3cc(F)ccc3C2)nc2ccccc12 [Example 118-16, N-[2-(7-Fluoro-1,3,4,5-tetrahydro-2H-2-benzazepin-2-yl)quinolin-4-yl]ethane-1,2-diamine]"
11,0.616,"CNCCNc1cc(N2CCCc3ccccc3C2)nc2ccccc12 [Example 118-14, N-Methyl-N′-[2-(1,3,4,5-tetrahydro-2H-2-benzazepin-2-yl)quinolin-4-yl]ethane-1,2-diamine]"
12,0.463,"Cc1ccc2nc(N3CCCc4cc(F)ccc4C3)cc(NCCN)c2c1 [Example 118-13, N-[2-(7-Fluoro-1,3,4,5-tetrahydro-2H-2-benzazepin-2-yl)-6-methylquinolin-4-yl]ethane-1,2-diamine]"
13,0.289,"NCCNc1cc(N2CCCc3ccccc3C2)nc2ccc(Br)cc12 [Example 118-10, N-[6-Bromo-2-(1,3,4,5-tetrahydro-2H-2-benzazepin-2-yl)quinolin-4-yl]ethane-1,2-diamine]"
14,0.178,"NCCNc1cc(N2CCCc3ccccc3C2)nc2ccc(Cl)cc12 [Example 118-5, N-[6-Chloro-2-(1,3,4,5-tetrahydro-2H-2-benzazepin-2-yl)quinolin-4-yl]ethane-1,2-diamine]"
